# Test results: patent US10954214B2 (Janssen Pharmaceutica NV, priority 2016, dated 2021)
# Columns and labels:
# [1] = target: full-length MALT1 protein (Strep-MALT1(1-824)-His) (Homo sapiens (Human), UniProt Q9UDY8); test: MALT1 Biochemical Protease Assay (Ac-LRSR-AMC substrate); conditions: 10 nM FL MALT1, 200 μM Ac-LRSR-AMC, 4 h at RT; read-out: MALT1_Biochemical activity (Ac-LRSR-amc) IC50
# How it was run: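 Fluorescence from AMC release off the quenched LRSR substrate was read after a 4 h reaction at RT. Values were normalised to no-enzyme and uninhibited controls and fitted for IC50 and Hill coefficient.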
# [2] = system: IL6 secretion by TMD8 ABC-DLBCL cells; test: Human IL6 Mesoscale assay (TMD-8); format: cell-based; conditions: Homo sapiens, TMD8; TMD-8 cells, 24 h
# How it was run: (§1)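 100,000 cells/well treated with compound in 9 twofold steps from 15 μM to 58.6 nM (0.3% DMSO) for 24 h at 37° C; supernatant cytokine measured by MSD electrochemiluminescence sandwich immunoassay. DMSO wells set maximum signal, BTK inhibitor RN486 (30 nM to 131 pM) set maximum inhibition.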
# [3] = system: IL10 secretion by TMD8 ABC-DLBCL cells; test: Human IL10 Mesoscale assay (TMD-8); format: cell-based; conditions: Homo sapiens, TMD8; TMD-8 cells, 24 h
# How it was run: as §1
# [4] = system: OCI-Ly3 cells; test: 4-day proliferation assay, OCI-Ly3; format: cell-based, human; conditions: Homo sapiens, 96 h, 4 days incubation, CellTiterGLO, read-out: Anti-proliferation: OCI-LY-3 IC50
# Experimental: (§2) To assess anti-proliferative effects, MALT1 inhibitor test compounds were tested in 4-day proliferation assays using three different DLBCL cell lines.
# (§3) Cells should be kept between 0.5-2.5 million cells per mL during culturing and cells should be supplemented every 2-3 days with fresh 50 μM beta-mercaptoenthanol. No beta-mercaptoethanol is used during the proliferation assay. OCI-Ly7 cells were propagated in IMDM (ThermoFisher) supplemented with 10% fetal bovine serum (HyClone), 2 mM L-glutamine (Sigma Aldrich) and 50 μg/mL Gentamycin. Cell passage numbers should not exceed 30 (for OCI-Ly3 cells with passage number lower than 10 were used).
# (§4) 10,000 TMD8, 10,000 OCI-Ly3 or 2,000 OCI-Ly7 cells were seeded in 100 μL media per well and incubated for 4 days at 37° C. and 5% CO2. Cell plating numbers were chosen based on growth curves to ensure linear cell growth. After 4 days of incubation 50 μL CellTiterGLO reagent (Promega) were added to each well and luminescence was measured on the Envision after 10 min of incubation at room temperature.
# (§5) LC=median of the low control values
# (§6) An estimate of the slope of the plot in terms of the Hill coefficient was also obtained.
# [5] = system: TMD8 cells; test: 4-day proliferation assay, TMD8; format: cell-based; conditions: Homo sapiens, 96 h, 4 days incubation, CellTiterGLO, read-out: Anti-proliferation: TMD-8 IC50
# Experimental: as §2, §3, §4, §5, §6
# full-length MALT1 protein (Strep-MALT1(1-824)-His), sequence (Q9UDY8 whole entry): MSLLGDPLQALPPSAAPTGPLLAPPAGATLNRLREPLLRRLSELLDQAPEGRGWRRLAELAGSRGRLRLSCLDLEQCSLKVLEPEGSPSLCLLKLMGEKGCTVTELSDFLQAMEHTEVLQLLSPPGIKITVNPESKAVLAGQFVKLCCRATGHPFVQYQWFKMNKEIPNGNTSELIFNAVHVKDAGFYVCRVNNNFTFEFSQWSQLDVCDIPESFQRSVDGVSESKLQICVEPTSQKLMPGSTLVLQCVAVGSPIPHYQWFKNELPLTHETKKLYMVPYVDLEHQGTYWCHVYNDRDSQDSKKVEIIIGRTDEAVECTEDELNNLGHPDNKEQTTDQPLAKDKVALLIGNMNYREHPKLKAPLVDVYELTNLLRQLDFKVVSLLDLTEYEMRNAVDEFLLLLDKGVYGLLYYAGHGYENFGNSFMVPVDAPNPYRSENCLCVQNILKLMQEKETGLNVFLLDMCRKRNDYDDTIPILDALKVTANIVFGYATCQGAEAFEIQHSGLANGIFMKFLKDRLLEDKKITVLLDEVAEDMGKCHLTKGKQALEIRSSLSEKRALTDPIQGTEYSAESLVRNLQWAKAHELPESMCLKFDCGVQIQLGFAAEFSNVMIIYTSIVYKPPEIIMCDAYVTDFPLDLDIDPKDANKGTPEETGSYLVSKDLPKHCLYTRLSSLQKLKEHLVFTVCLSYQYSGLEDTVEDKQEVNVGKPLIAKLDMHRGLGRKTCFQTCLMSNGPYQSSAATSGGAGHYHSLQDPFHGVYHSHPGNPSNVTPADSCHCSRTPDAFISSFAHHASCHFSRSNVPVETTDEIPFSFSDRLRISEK
SMILES,IC50 [1],IC50 [2],IC50 [3],IC50 [4],IC50 [5]
"CN1C(=O)COc2c(Cl)cc(NC(=O)c3cnn(-c4cccc5ncccc45)c3C(F)(F)F)cc21 [Cpd 95, N-(8-Chloro-4-methyl-3-oxo-3,4-dihydro-2H-benzo[b][1,4]oxazin-6-yl)-1-(quinolin-5-yl)-5-(trifluoromethyl)-1H-pyrazole-4-carboxamide]",117 nM,646 nM,302 nM,3800 nM,~7940 nM
"O=C(Nc1cnc(-n2nccn2)c(Cl)c1)c1cnn(-c2ccc(F)c3nccn23)c1C(F)(F)F [Cpd 202, N-(5-chloro-6-(2H-1,2,3-triazol-2-yl)pyridin-3-yl)-1-(8-fluoroimidazo[1,2-a]pyridin-5-yl)-5-(trifluoromethyl)-1H-pyrazole-4-carboxamide]",51 nM,5010 nM,2950 nM,1360 nM,2340 nM
"O=C(Nc1cnc(-n2nccn2)c(Cl)c1)c1cnn(-c2cccc3[nH]ncc23)c1C(F)(F)F [Cpd 68, N-(5-Chloro-6-(2H-1,2,3-triazol-2-yl)pyridin-3-yl)-1-(1H-indazol-4-yl)-5-(trifluoromethyl)-1H-pyrazole-4-carboxamide]",151 nM,417 nM,257 nM,370 nM,~19000 nM
"Cn1ccnc1-c1ncc(NC(=O)c2cnn(-c3cncc4ccccc34)c2C(F)(F)F)cc1Cl [Cpd 98, N-(5-chloro-6-(1-methyl-1H-imidazol-2-yl)pyridin-3-yl)-1-(isoquinolin-4-yl)-5-(trifluoromethyl)-1H-pyrazole-4-carboxamide]",200 nM,468 nM,417 nM,5750 nM,~11000 nM
"N#Cc1cc(NC(=O)c2cnn(-c3cncc4ccccc34)c2C(F)(F)F)ccc1-n1ccnn1 [Cpd 62, N-(3-cyano-4-(1H-1,2,3-triazol-1-yl)phenyl)-1-(isoquinolin-4-yl)-5-(trifluoromethyl)-1H-pyrazole-4-carboxamide]",59 nM,112 nM,85 nM,230 nM,10000 nM
"CCOc1ncc(NC(=O)c2cnn(-c3cccc4ncccc34)c2C(F)(F)F)cc1C#N [Cpd 81, N-(5-cyano-6-ethoxypyridin-3-yl)-1-(quinolin-5-yl)-5-(trifluoromethyl)-1H-pyrazole-4-carboxamide]",123 nM,135 nM,138 nM,~1350 nM,11500 nM
"O=C(Nc1cnc(-n2nccn2)c(Cl)c1)c1cnn(-c2cnc(CO)c3ccccc23)c1C(F)(F)F [Cpd 385, N-(5-chloro-6-(2H-1,2,3-triazol-2-yl)pyridin-3-yl)-1-(1-(hydroxymethyl)isoquinolin-4-yl)-5-(trifluoromethyl)-1H-pyrazole-4-carboxamide]",54 nM,214 nM,166 nM,837 nM,1510 nM
"N#Cc1cc(NC(=O)c2cnn(-c3ccc(F)c4ccccc34)c2C(F)(F)F)cnc1-n1nccn1 [Cpd 312, N-(5-cyano-6-(2H-1,2,3-triazol-2-yl)pyridin-3-yl)-1-(4-fluoronaphthal-1-yl)-5-(trifluoromethyl)-1H-pyrazole-4-carboxamide]",49 nM,8320 nM,2460 nM,516 nM,501 nM
"COCc1cnn(-c2ncc(NC(=O)c3cnn(-c4cccc5ncccc45)c3C(F)(F)F)cc2Cl)n1 [Cpd 173, N-(5-chloro-6-(4-(methoxymethyl)-2H-1,2,3-triazol-2-yl)pyridin-3-yl)-1-(quinolin-5-yl)-5-(trifluoromethyl)-1H-pyrazole-4-carboxamide]",59 nM,550 nM,240 nM,1730 nM,2690 nM
"COc1ncc(NC(=O)c2cnn(-c3cccc4ncccc34)c2C(F)(F)F)cc1C#N [Cpd 85, N-(5-cyano-6-methoxypyridin-3-yl)-1-(quinolin-5-yl)-5-(trifluoromethyl)-1H-pyrazole-4-carboxamide]",132 nM,95 nM,120 nM,1660 nM,> 20000 nM

# The next molecules have a lower IC50 [1] than those just listed; values first:
IC50 [1],IC50 [2],IC50 [3],IC50 [4],SMILES,IC50 [5]
21 nM,45 nM,31 nM,414 nM,"O=C(Nc1cnc(-n2ncc(CO)n2)c(Cl)c1)c1cnn(-c2cccc3ncccc23)c1C(F)(F)F [Cpd 136, N-(5-chloro-6-(4-(hydroxymethyl)-2H-1,2,3-triazol-2-yl)pyridin-3-yl)-1-(quinolin-5-yl)-5-(trifluoromethyl)-1H-pyrazole-4-carboxamide]",2290 nM
29 nM,912 nM,2630 nM,759 nM,"Cn1nnc(-c2ncc(NC(=O)c3cnn(-c4cccc5ncccc45)c3C(F)(F)F)cc2C#N)n1 [Cpd 149, N-(5-cyano-6-(2-methyl-2H-tetrazol-5-yl)pyridin-3-yl)-1-(quinolin-5-yl)-5-(trifluoromethyl)-1H-pyrazole-4-carboxamide]",4360 nM
33 nM,2510 nM,2340 nM,486 nM,"N#Cc1nccc2c(-n3ncc(C(=O)Nc4cnc(-n5nccn5)c(Cl)c4)c3C(F)(F)F)cccc12 [Cpd 411, N-(5-chloro-6-(2H-1,2,3-triazol-2-yl)pyridin-3-yl)-1-(1-cyanoisoquinolin-5-yl)-5-(trifluoromethyl)-1H-pyrazole-4-carboxamide]",871 nM
44 nM,457 nM,178 nM,513 nM,"O=C(Nc1cnc(-n2nccn2)c(Cl)c1)c1cnn(-c2cc[n+]([O-])c3ccccc23)c1C(F)(F)F [Cpd 405, 4-(4-((5-chloro-6-(2H-1,2,3-triazol-2-yl)pyridin-3-yl)carbamoyl)-5-(trifluoromethyl)-1H-pyrazol-1-yl)quinoline 1-oxide]",4360 nM
21 nM,98 nM,135 nM,520 nM,"N#Cc1cc(NC(=O)c2cnn(-c3nccc4sccc34)c2C(F)(F)F)cnc1-n1nccn1 [Cpd 90, N-(5-cyano-6-(2H-1,2,3-triazol-2-yl)pyridin-3-yl)-1-(thieno[3,2-c]pyridin-4-yl)-5-(trifluoromethyl)-1H-pyrazole-4-carboxamide]",~3890 nM
32 nM,331 nM,132 nM,337 nM,"O=C(Nc1cnc(-n2nccn2)c(C(F)(F)F)c1)c1cnn(-c2cccc3ncccc23)c1C(F)(F)F [Cpd 146, N-(6-(2H-1,2,3-triazol-2-yl)-5-(trifluoromethyl)pyridin-3-yl)-1-(quinolin-5-yl)-5-(trifluoromethyl)-1H-pyrazole-4-carboxamide]",1020 nM
30 nM,102 nM,85 nM,325 nM,"O=C(Nc1cnc(-n2nccn2)c(Cl)c1)c1cnn(-c2cccc3nnsc23)c1C(F)(F)F [Cpd 120, 1-(benzo[d][1,2,3]thiadiazol-7-yl)-N-(5-chloro-6-(2H-1,2,3-triazol-2-yl)pyridin-3-yl)-5-(trifluoromethyl)-1H-pyrazole-4-carboxamide]",1950 nM
